Measurements as given in ChEMBL document CHEMBL1201862, “PubChem BioAssay data set” (2004).
Activity calls are given as the source filed them.

Tests used:
[1] = HEK-293T viability loss after treatment – luminescence, T-cell screen hits, cytotoxicity control for TCR NF-kB inhibitor project, dose response (AID 489026); type: functional, cell-based;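 further: cells exposed to compound about 14 hours before the viability readout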
[2] = A cytotoxicity screen of small molecule inhibitors of the PhoP region in Salmonella typhi identified in the primary screen. [Related pubchem assays: 1850, 1864, 1985 ]; type: functional
Cytochrome P450 3A4 = Cytochrome P450 3A4 (Homo sapiens, UniProt P08684); details: Potency;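 further: confirmatory qHTS run detecting inhibitors and substrates of CYP3A4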
[3] = intracellular Trypanosoma cruzi inhibitors in host cells – cell-based, plate reader, cherry-pick samples, set 3, dose response (AID 651818); type: functional;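 further: compounds incubated with infected cells for about four days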
Leucine aminopeptidase = target: T1, Leucine aminopeptidase (Plasmodium falciparum 3D7, UniProt Q8IL11); test: P. falciparum M17LAP inhibitors, primary screen, biochemical, fluorogenic H-Leu-NHMec substrate, 1536-well (AID 1619); type: functional
T1 sequence (Q8IL11 whole entry): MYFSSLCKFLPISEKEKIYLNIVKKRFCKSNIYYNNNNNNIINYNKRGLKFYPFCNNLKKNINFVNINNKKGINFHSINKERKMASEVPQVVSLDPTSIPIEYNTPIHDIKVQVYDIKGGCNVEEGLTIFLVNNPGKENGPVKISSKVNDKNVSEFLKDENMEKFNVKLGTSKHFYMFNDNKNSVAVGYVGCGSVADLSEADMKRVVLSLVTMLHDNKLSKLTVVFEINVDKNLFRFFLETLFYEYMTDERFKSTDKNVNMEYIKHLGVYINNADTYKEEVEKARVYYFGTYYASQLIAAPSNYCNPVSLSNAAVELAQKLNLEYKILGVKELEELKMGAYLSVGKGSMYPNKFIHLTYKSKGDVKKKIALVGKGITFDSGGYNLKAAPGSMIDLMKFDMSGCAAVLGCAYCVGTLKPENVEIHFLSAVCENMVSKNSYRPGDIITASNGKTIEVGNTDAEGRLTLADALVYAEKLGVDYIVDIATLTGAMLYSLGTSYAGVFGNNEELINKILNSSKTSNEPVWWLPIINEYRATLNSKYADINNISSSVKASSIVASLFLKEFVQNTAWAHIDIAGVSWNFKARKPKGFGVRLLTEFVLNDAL

[4] = target: T2, Calpain-2 catalytic subunit (Sus scrofa, UniProt P43367); test: m-calpain protease blockers, concentration series – biochemical, fluorogenic peptide substrate, dose response (AID 1420); type: functional
T2 sequence (P43367 whole entry): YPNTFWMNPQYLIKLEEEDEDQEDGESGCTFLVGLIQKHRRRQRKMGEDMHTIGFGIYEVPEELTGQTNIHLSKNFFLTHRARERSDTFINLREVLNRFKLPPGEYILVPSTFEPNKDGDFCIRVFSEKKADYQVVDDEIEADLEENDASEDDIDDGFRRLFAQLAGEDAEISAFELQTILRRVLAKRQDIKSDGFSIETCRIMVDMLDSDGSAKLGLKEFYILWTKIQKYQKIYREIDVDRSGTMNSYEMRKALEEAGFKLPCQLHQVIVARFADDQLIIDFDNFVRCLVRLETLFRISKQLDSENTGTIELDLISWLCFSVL

Protein RecA = target: T3, Protein RecA (Mycobacterium tuberculosis, UniProt P9WHJ3); test: Fluorescence Cell-Free Homogeneous Dose Retest to Identify Inhibitors of RecA-Intein Splicing Activity. [Related pubchem assays (depositor defined):AID2097, AID2223, AID489010, AID492950]; type: functional
T3 sequence (P9WHJ3 whole entry): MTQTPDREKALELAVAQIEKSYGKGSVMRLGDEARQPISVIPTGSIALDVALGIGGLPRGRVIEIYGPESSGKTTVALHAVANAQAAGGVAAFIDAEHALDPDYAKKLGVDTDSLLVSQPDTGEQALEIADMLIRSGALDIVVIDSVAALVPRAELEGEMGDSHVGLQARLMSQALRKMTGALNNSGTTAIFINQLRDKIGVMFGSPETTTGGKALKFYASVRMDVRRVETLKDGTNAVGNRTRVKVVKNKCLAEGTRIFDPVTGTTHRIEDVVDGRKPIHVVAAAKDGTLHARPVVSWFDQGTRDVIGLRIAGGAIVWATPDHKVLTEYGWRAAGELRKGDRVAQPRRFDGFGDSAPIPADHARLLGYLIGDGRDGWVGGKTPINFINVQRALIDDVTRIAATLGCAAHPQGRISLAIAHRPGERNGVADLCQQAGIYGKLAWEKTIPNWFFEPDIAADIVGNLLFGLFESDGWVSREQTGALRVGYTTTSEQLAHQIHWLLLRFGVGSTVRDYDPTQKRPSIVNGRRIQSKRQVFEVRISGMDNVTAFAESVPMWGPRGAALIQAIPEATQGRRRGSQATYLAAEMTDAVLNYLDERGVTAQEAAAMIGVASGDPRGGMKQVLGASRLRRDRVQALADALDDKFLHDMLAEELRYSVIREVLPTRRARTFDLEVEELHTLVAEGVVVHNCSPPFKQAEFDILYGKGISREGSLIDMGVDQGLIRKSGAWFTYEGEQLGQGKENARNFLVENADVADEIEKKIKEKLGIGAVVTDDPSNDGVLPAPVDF

[5] = target: T4, Replicative DNA helicase DnaB (Mycobacterium tuberculosis, UniProt P9WMR3); test: DnaB intein splicing inhibitors, dose response, biochemical, cell-free fluorescence (AID 449749); type: functional
T4 sequence (P9WMR3 whole entry): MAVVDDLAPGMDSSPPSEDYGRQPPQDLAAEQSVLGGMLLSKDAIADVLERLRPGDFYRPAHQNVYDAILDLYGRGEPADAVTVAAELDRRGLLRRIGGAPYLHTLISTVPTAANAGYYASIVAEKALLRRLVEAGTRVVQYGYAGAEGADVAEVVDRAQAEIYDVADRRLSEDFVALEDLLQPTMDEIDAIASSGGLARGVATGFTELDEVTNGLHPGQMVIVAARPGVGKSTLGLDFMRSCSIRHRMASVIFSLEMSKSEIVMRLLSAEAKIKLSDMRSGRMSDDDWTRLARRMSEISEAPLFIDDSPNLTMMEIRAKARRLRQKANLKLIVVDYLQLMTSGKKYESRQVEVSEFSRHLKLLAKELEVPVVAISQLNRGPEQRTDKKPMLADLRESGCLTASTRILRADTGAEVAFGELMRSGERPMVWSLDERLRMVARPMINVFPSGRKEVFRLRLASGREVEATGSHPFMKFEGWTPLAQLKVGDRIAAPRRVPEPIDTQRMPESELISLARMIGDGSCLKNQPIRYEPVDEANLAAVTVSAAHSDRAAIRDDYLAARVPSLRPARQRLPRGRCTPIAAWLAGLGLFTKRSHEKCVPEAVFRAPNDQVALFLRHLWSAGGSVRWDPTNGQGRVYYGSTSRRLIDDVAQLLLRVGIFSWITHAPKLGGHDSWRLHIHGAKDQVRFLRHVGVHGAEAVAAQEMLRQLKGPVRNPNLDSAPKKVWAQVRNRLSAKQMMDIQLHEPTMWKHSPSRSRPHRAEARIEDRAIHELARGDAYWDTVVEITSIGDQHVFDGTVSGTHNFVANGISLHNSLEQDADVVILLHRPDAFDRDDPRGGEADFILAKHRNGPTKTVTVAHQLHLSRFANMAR

Cytochrome P450 2D6 = Cytochrome P450 2D6 (Homo sapiens, UniProt P10635);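 further: CYP2D6 member of a cytochrome P450 panel assay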
Protein skinhead-1 = target: T5, Protein skinhead-1 (Caenorhabditis elegans, UniProt P34707); type: functional
T5 sequence (P34707 whole entry): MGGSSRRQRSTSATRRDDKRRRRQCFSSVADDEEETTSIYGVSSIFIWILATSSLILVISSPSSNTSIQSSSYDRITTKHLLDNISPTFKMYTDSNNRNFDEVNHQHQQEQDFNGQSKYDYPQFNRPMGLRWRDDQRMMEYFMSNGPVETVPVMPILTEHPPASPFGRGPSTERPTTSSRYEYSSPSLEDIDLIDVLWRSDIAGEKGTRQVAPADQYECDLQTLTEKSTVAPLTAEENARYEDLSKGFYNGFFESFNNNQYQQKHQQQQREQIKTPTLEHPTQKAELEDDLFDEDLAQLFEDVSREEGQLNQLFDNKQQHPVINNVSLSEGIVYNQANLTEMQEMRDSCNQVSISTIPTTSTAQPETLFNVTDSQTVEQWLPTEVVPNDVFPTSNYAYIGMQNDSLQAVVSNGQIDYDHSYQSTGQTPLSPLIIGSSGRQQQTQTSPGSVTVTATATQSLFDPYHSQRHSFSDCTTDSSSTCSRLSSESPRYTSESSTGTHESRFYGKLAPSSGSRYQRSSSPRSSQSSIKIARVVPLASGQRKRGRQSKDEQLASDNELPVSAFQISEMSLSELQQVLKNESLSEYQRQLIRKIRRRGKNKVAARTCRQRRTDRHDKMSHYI

[6] = target: Induced myeloid leukemia cell differentiation protein Mcl-1 (Homo sapiens, UniProt Q07820); type: functional
Sequence of Induced myeloid leukemia cell differentiation protein Mcl-1 (Q07820 whole entry): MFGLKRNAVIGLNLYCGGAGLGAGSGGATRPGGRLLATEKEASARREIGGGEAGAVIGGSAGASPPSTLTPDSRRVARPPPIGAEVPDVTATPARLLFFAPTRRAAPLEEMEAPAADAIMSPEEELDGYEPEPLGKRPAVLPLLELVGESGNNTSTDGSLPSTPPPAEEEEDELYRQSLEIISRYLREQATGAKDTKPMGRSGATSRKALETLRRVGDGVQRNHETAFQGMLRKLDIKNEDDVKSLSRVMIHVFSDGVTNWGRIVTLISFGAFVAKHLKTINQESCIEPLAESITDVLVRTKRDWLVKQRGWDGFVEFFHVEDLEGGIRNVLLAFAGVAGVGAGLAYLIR

Sequence of Cytochrome P450 3A4 (P08684 whole entry): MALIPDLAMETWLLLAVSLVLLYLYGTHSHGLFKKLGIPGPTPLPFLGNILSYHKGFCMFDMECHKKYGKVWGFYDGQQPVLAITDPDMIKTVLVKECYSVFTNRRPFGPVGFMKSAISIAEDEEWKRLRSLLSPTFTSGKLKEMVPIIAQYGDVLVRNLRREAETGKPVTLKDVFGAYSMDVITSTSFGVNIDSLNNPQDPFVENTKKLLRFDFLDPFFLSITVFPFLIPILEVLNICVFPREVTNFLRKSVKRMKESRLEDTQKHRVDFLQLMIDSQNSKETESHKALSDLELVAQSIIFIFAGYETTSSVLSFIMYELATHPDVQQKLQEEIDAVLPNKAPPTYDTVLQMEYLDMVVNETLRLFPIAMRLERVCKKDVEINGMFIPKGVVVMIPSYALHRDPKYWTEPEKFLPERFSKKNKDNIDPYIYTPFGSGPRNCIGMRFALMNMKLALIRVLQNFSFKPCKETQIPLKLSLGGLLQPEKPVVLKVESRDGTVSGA
Sequence of Cytochrome P450 2D6 (P10635 whole entry): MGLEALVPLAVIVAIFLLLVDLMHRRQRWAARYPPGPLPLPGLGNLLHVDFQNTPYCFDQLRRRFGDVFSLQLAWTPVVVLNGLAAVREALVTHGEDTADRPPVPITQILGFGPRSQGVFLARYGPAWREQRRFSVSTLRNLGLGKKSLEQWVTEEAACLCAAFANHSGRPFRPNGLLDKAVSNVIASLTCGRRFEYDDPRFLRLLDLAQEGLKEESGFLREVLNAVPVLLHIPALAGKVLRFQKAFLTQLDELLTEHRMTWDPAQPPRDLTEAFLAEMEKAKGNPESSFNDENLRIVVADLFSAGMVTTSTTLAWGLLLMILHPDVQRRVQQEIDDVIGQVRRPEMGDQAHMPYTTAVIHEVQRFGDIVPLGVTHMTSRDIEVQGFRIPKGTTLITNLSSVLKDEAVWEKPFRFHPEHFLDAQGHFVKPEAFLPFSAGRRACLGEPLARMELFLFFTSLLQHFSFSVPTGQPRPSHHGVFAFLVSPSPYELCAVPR

COC(=O)CCC(=O)NC(=S)Nc1sc(C)c(C)c1C(N)=O
IC50 [1]: > 80 µM (inactive)

O=C(C[n+]1ccc(-c2ccccc2)cc1)Nc1ccc([N+](=O)[O-])cc1
EC50 [2]: > 50 µM (active)

C/C=C(\C)C(=O)N[C@@H](c1ccccc1)[C@@H](O)C(=O)O[C@H]1C[C@@]2(O)[C@@H](OC(=O)c3ccccc3)C3[C@](C)(C(=O)[C@H](OC(C)=O)C(=C1C)C2(C)C)[C@@H](O)C[C@H]1OC[C@@]31OC(C)=O (some centres undefined)
IC50 [1]: > 80 µM (inactive)

COc1ccc(OC2C=CC(c3ccccc3)OC2CO)c(C(C)=O)c1 (centres undefined)
AC50 (Cytochrome P450 3A4): 3.98 µM (inconclusive)

C[C@@H]1CN([C@H](C)CO)C(=O)Cc2cc(NC(=O)Nc3ccc4c(c3)OCO4)ccc2O[C@@H]1CN(C)Cc1ccc(Oc2ccccc2)cc1
AC50 [3]: 2.87 µM (active)

C[C@@H]1CN([C@@H](C)CO)C(=O)c2cccc(NC(=O)Nc3ccc4c(c3)OCO4)c2O[C@@H]1CN(C)Cc1ccc(C(=O)Nc2ccccc2N)cc1
AC50 [3]: 3.18 µM (active)

Cc1nc(N2CCOCC2)c2nc(-c3ccccc3)n(CCCN3CCCCC3C)c2n1 (centres undefined)
AC50 (Cytochrome P450 3A4): 15.8 µM (inconclusive)

Cn1c(NC(=O)/C=C\c2ccccc2)cc(=O)n(C)c1=O
IC50 (Leucine aminopeptidase): 78.4 µM (active)
IC50 [4]: 7.1 µM (not active)

C[C@@H]1CCCCO[C@H](CN(C)Cc2ccc(C(=O)Nc3ccccc3N)cc2)[C@@H](C)CN([C@H](C)CO)C(=O)c2cc(NS(=O)(=O)c3ccc(F)cc3)ccc2O1
AC50 [3]: 1.83 µM (active)

N#CC1=C(N)Oc2nc(-c3ccccc3)[nH]c2C1c1cccnc1 (centres undefined)
EC50 (Protein RecA): 2.6 µM (active)
IC50 (Leucine aminopeptidase): 66.6 µM (active)
AC50 [5]: 11.3 µM (active)

CC1CCc2c(C(=O)Nc3nccs3)csc2C1 (centres undefined)
AC50 (Cytochrome P450 2D6): 3.55 µM (inconclusive)
IC50 (Protein skinhead-1): > 100 µM (inactive)

COCCN1Cc2cccc(C(=O)Nc3cccc(C)c3C)c2C1=O
IC50 [6]: 6.79 µM (not active)

O=C1CSC(=S)N1c1cccc(O)c1
EC50 [2]: > 50 µM (active)

Oc1ccccc1O [CATECHOL]
AC50 (Cytochrome P450 3A4): 10 µM (inconclusive)

COc1ccc(C(=O)c2oc3ccc(OC)cc3c2N)cc1
IC50 (Protein skinhead-1): > 100 µM (inactive)
